Laboratory results as given in US7981920B2, “Addition salts of angiotensin-converting enzyme inhibitors with no donor acids, a process for their preparation and pharmaceutical compositions containing them” (Les Laboratoires Servier, priority 2007, dated 2011).

Tests used:
[1] = system: Aorta rings without endothelium; test: NO donor activity in vitro: relaxation of noradrenaline-contracted aorta rings; format: cell-based; settings: stable contraction induced by noradrenaline (0.1-0.3 μM), read-out: IC50 (dose that inhibits the maximum effect by 50%), relaxing effect
Experimental: Aorta rings without endothelium are used. After a first contraction induced by 60 mM KCl to characterise the sensitivity of the ring, and washing, a stable contraction is induced by noradrenaline (0.1-0.3 μM) in the presence or absence of a guanylate cyclase inhibitor, ODQ (10 μM). A cumulative concentration series is applied and the activity of the product under test is calculated by an IC50 (dose that inhibits the maximum effect by 50%).

[2] = biological target: T1, Angiotensin 1-Converting Enzyme (Rattus norvegicus, UniProt P47820); test: Activity inhibiting angiotensin 1-converting enzyme in vivo: hypertensive response to angiotensin I in anaesthetised rats; settings: dose of 0.1 mg/kg, given 60 minutes prior to anaesthesia, angiotensin I i.v. 1.5 μg/kg
T1 construct: from tissue; host or cells: whole living rat (in vivo; endogenous enzyme)
T1 sequence (P47820 36-1313): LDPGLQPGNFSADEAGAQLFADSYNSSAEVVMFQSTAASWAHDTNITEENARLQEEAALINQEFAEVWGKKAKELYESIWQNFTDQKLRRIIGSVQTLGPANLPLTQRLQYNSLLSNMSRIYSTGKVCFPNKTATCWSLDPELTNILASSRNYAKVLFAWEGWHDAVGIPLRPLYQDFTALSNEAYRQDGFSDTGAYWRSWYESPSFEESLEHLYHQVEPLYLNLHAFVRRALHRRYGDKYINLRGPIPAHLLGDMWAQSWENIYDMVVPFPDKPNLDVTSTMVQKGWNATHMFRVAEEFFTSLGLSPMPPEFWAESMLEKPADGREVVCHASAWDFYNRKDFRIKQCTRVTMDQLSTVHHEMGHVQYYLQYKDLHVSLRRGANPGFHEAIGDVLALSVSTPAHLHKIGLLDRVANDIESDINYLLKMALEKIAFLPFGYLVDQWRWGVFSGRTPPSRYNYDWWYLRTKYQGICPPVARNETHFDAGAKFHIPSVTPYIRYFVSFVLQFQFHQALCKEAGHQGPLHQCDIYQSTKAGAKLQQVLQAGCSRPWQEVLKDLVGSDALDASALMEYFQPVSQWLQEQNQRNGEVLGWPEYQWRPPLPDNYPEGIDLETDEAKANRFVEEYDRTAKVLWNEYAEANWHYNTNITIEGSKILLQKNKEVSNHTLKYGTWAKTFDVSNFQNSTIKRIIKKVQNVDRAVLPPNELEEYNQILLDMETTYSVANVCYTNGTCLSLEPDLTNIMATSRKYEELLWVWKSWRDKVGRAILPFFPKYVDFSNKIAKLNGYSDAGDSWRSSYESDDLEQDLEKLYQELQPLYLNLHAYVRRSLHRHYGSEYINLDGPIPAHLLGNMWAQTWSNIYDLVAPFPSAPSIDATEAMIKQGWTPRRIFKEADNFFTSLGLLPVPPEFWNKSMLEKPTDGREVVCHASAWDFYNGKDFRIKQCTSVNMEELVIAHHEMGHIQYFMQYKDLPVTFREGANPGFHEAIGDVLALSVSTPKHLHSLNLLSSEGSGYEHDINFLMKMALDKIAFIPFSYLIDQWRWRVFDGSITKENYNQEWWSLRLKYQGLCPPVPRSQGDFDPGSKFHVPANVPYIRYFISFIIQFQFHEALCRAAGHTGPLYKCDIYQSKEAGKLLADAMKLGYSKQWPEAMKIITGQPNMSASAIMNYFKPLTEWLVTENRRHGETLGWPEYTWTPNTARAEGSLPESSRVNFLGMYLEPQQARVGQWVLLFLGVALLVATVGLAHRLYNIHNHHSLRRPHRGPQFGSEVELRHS
Experimental: Rats are anaesthetised with pentobarbital and placed under artificial respiration, and the average arterial pressure is measured by a catheter that has been placed in the femoral artery and is connected to a pressure sensor. The vagus nerves are divided into sections and mecamilamine (sympathetic ganglion blocker) is injected i.v. at 1.5 mg/kg. After stabilisation, angiotensin I is injected i.v. at 1.5 μg/kg.
The maximum hypertensive response to angiotensin I is measured in rats that, 60 minutes prior to anaesthesia, have received by the oral route either Senegal gum alone (control group), or the compound under test in Senegal gum. The inhibitory effect is determined as a percentage from the response to angiotensin I compared with the control group.

For “(2S,3aS,7aS)-1-[(2S)-2-{[(1S)-1-(Ethoxycarbonyl)-butyl]-amino}-propionyl]-octahydro-1H-indole-2-carboxylic acid-{[(3-{[5-oxido-4-(phenylsulphonyl)-1,2,5-oxadiazol-3-yl]-oxy}-propionyl)-amino]-methyl}-phosphonic acid (1:1) [Example 7]”, the IC50 [1] was 47 nM and the “angiotensin I inhibition (inhibition of maximum hypertensive response to angiotensin I compared with control group)” value [2] was 88%.
With “(2S)-2-[(3-{[5-Oxido-4-(phenylsulphonyl)-1,2,5-oxadiazol-3-yl]-oxy}-propionyl)-amino]-succinic Acid-(2S,3aS,7aS)-1-[(2S)-2-{[(1S)-1-(ethoxycarbonyl)-butyl]-amino}-propionyl]-octahydro-1H-indole-2-carboxylic Acid (1:1) [Example 1]” the IC50 [1] was 48 nM and the “angiotensin I inhibition (inhibition of maximum hypertensive response to angiotensin I compared with control group)” value [2] was 85%.
